pKi: −log10 of the molar value. Read-outs that look alike come from different tables or passages of the source.
How the values were obtained:
Format in all cases: biochemical
ENPP1 [1] = target: T1, ENPP1 (Homo sapiens, UniProt P22413); assay: Indirect quantitation of 2',3'-cGAMP hydrolysis (AMP-Glo Assay kit)
T1 sequence (P22413 1-925): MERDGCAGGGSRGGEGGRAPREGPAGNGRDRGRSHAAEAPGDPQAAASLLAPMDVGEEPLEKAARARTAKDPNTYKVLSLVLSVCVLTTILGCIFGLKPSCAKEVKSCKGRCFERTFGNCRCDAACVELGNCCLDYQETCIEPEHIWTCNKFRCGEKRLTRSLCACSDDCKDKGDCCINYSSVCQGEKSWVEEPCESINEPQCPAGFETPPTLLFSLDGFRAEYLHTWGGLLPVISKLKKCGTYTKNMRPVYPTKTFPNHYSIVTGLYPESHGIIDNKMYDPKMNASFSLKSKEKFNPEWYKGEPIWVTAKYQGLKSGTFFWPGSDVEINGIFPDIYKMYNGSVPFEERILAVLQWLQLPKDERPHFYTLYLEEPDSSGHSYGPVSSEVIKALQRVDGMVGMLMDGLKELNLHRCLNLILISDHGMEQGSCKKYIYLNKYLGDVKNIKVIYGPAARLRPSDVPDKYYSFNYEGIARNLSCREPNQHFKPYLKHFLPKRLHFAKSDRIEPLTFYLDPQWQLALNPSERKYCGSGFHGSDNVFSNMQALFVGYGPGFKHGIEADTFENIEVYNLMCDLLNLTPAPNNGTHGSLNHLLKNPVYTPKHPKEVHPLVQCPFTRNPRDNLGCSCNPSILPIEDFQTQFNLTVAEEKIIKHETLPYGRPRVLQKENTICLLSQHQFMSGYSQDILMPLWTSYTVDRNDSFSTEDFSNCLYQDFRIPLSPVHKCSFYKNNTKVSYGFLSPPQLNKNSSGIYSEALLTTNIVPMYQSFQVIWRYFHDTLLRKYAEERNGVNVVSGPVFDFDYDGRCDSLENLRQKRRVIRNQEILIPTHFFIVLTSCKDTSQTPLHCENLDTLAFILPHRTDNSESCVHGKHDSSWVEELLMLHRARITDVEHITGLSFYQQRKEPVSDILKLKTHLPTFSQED

ENPP1 [2] = target: T1, ENPP1; assay: ENPP1 enzyme assay with cGAMP substrate (AMP-Glo); set-up: purchased R&D Systems; details: for inhibition at 1 µM: read-out: cGAMP: % Inhibition at 1 µM
From the text: Example B1: ENPP1 Enzyme Assay With cGAMP Substrate
Ectonucleotide pyrophosphatase/phosphodiesterase 1 (ENPP-1) is a transmembrane glycoprotein that hydrolyzes nucleotides and nucleotide derivatives with the formation of nucleoside-5’-monophosphates. […] The 5’-AMP formed from the reaction is detected using the AMP-Glo® Kit (Promega). The assay kit contains two reagents. The first reagent terminates the enzymatic reaction, removes ATP (using adenylyl cyclase), and converts 5’-AMP produced into ADP (using polyphosphate: AMP phosphotransferase). The second reagent converts ADP to ATP (using adenylate kinase) and generates light from ATP using the luciferin/luciferase reaction.
Different concentrations of ENPP1 inhibitors are pre-incubated with 5 ng/well of human ENPP-1 enzyme (R&D Systems) for 15 minutes at 37° C. The reaction is initiated by adding 20 µM 2’3’-cGAMP and incubating for 30 minutes at 37° C. The final assay reaction mixture contains a buffer of 50 mM Tris pH 8.0, 250 mM NaCl, 0.5 mM CaCl2, 1 µM ZnCl2 and 1% DMSO. At the end of the incubation, the reaction is stopped by adding 12 µl of AMP-Glo reagent-1 and mixing the reaction uniformly for 5 minutes, followed by incubation at room temperature for one hour. Then 25 µl of AMP Glo reagent-2 is added to the reaction, mixed uniformly with a pipette, and incubated at room temperature for one hour to convert the ADP formed from reagent-1 to ATP and light. The generated light is measured in a Perkin Elmer Victor® instrument.
The IC50 values for percent inhibition versus compound concentration are determined by fitting the inhibition curves using a four-parameter variable slope model in GraphPad Prism® software. Ki values are derived from the IC50 values using the Cheng-Prusoff equation: […]

ENPP1 [3] = target: T1, ENPP1; assay: ENPP1 enzyme assay with AMP-pNP substrate (hydrolysis of ATP analog)
How it was run: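 Human recombinant ENPP1 (60 ng/well) with 300 µM AMP-pNP in 50 mM Tris-HCl pH 8.5, 250 mM NaCl, 0.5 mM CaCl2, 1 µM ZnCl2, 0.1% DMSO, 20 min at 37 °C.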

ENPP1 [4] = target: T1, ENPP1; assay: Substrate selectivity ratio, inhibition of cGAMP hydrolysis versus ATP hydrolysis; details: ratio Ki AMP-pNP / Ki cGAMP
Description: The selectivity ratios for inhibition of cGAMP hydrolysis versus ATP hydrolysis were then calculated as follows: […]

[5] = cGAMP substrate, Ki from IC50 by Cheng-Prusoff, read-out: ENPP1 Inhibition -cGAMP: Ki
[6] = AMP-pNP substrate (ATP analog), Ki from IC50 by Cheng-Prusoff, read-out: ENPP1 Inhibition _AMP-pNP: Ki

SMILES	pKi (ENPP1 [1]; [5])	Substrate Selectivity: Ki_AMP-pNP/Ki_cGAMP (ENPP1 [4])	pKi (ENPP1 [3]; [6])	other results
COc1cc(C(=O)N2CCC(CCNS(N)(=O)=O)CC2)c(N(C)C)cc1OC [Example 45, N-(2-(1-(2-(dimethylamino)-4,5-dimethoxybenzoyl)piperidin-4-yl)ethyl)sulfamide]	< 6.00	–	–	inhibition at 1 µM (ENPP1 [2]; 1 µM compound, cGAMP substrate): < 25%
NS(=O)(=O)NCCC1CCN(c2ccnc(Nc3ccccn3)n2)CC1 [Example 11, N-(2-(1-(2-(pyridin-2-ylamino)pyrimidin-4-yl)piperidin-4-yl)ethyl)sulfamide]	–	–	–	pKi (ENPP1 [1]): < 6.00; inhibition at 1 µM (ENPP1 [2]): < 25%; pKi (ENPP1 [3]): < 6.00
COc1cc2ccnc(N3CCC(CCNS(N)(=O)=O)CC3)c2cc1OC [Example 21, N-{2-[1-(6,7-dimethoxyisoquinolin-1-yl)piperidin-4-yl]ethyl}aminosulfonamide]	< 6.00	–	–	inhibition at 1 µM (ENPP1 [2]): 25 to 50%
NS(=O)(=O)NCCC1CCN(c2ccnc(Nc3ccncc3)n2)CC1 [Example 13, N-(2-(1-(2-(pyridin-4-ylamino)pyrimidin-4-yl)piperidin-4-yl)ethyl)sulfamide]	< 6.00	–	–	inhibition at 1 µM (ENPP1 [2]): 25 to 50%
COc1cccc(C(=O)N2CCC(CCNS(N)(=O)=O)CC2)c1 [Example 48, N-(2-(1-(3-methoxybenzoyl)piperidin-4-yl)ethyl)sulfamide]	< 6.00	–	–	inhibition at 1 µM (ENPP1 [2]; 1 µM compound, cGAMP substrate): 25 to 50%
NS(=O)(=O)NCCC1CCN(c2ccnc(Nc3cccnc3)n2)CC1 [Example 12, N-(2-(1-(2-(pyridin-3-ylamino)pyrimidin-4-yl)piperidin-4-yl)ethyl)sulfamide]	< 6.00	–	–	inhibition at 1 µM (ENPP1 [2]): < 25%
COc1cc(N)c(C(=O)N2CCC(CCNS(N)(=O)=O)CC2)cc1OC [Example 46, N-(2-(1-(2-amino-4,5-dimethoxybenzoyl)piperidin-4-yl)ethyl)sulfamide]	< 6.00	–	–	inhibition at 1 µM (ENPP1 [2]; 1 µM compound, cGAMP substrate): < 25%
NS(=O)(=O)NCCC1CCN(c2ccnc(NC(=O)c3cccnc3)n2)CC1 [Example 7, N-(4-(4-(2-(sulfamoylamino)ethyl)piperidin-1-yl)pyrimidin-2-yl)nicotinamide]	< 6.00	–	–	inhibition at 1 µM (ENPP1 [2]): < 25%
NS(=O)(=O)NCCC1CCN(c2ncnc3c2cnn3-c2ccccc2)CC1 [Example 26, N-(2-(1-(1-phenyl-1H-pyrazolo[3,4-d]pyrimidin-4-yl)piperidin-4-yl)ethyl)sulfamide]	< 6.00	–	–	inhibition at 1 µM (ENPP1 [2]): < 25%
COc1cc2ncnc(N3CCC(NS(N)(=O)=O)CC3)c2cc1OC [Example 51, N-(1-(6,7-dimethoxyquinazolin-4-yl)piperidin-4-yl)sulfamide]	6.00 to 7.00	–	–	inhibition at 1 µM (ENPP1 [2]; 1 µM compound, cGAMP substrate): > 75%; pKi (ENPP1 [2]; cGAMP substrate, Ki from IC50 by Cheng-Prusoff, read-out: cGAMP: Ki): 6.00 to 7.00
COc1ccc(C(=O)N2CCC(CCNS(N)(=O)=O)CC2)cc1 [Example 49, N-(2-(1-(4-methoxybenzoyl)piperidin-4-yl)ethyl)sulfamide]	< 6.00	–	–	inhibition at 1 µM (ENPP1 [2]; 1 µM compound, cGAMP substrate): 25 to 50%
NS(=O)(=O)NCCC1CCN(c2ccnc(-c3cccnc3)n2)CC1 [Example 14, N-(2-(1-(2-(pyridin-3-yl)pyrimidin-4-yl)piperidin-4-yl)ethyl)sulfamide]	< 6.00	–	–	inhibition at 1 µM (ENPP1 [2]; 1 µM compound, cGAMP substrate): < 25%
COc1cc2ncc(C#N)c(N3CCC(CCNS(N)(=O)=O)CC3)c2cn1 [Example 245, N-(2-(1-(3-cyano-7-methoxy-1,6-naphthyridin-4-yl)piperidin-4-yl)ethyl)sulfamide]	6.00 to 7.00	>92.6	< 6.00	–
NS(=O)(=O)NCCC1CCN(c2cc(-c3ccc4ncoc4c3)ncn2)CC1 [Example 9, N-(2-(1-(6-(benzo[d]oxazol-6-yl)pyrimidin-4-yl)piperidin-4-yl)ethyl)sulfamide]	< 6.00	–	–	inhibition at 1 µM (ENPP1 [2]): < 25%
COc1cc2ncnc(NCc3ccc(S(N)(=O)=O)cc3)c2cc1F [Example 259, 4-(((6-fluoro-7-methoxyquinazolin-4-yl)amino)methyl)benzenesulfonamide]	> 7.00	41.6	> 7.00	–
COc1cc2ncnc(-c3ccc(CN(C4CC4)S(N)(=O)=O)cc3)c2cc1OC [Example 285, N-cyclopropyl-N-(4-(6,7-dimethoxyquinazolin-4-yl)benzyl)sulfamide]	> 7.00	>28.3	6.00 to 7.00	–
COc1cc2nccc(Oc3ccc(NS(N)(=O)=O)cc3)c2cn1 [Example 330, N-(4-((7-methoxy-1,6-naphthyridin-4-yl)oxy)phenyl)sulfamide]	> 7.00	35	6.00 to 7.00	–
COc1cc2ncnc(NC(c3ccc(NS(N)(=O)=O)cc3)C3CC3)c2cc1OC (stereo not shown) [Example 246, N-(4-(cyclopropyl((6,7-dimethoxyquinazolin-4-yl)amino)methyl)phenyl)sulfamide]	> 7.00	>87.7	< 6.00	–
COc1cc2nccc(-c3ccc(CNS(N)(=O)=O)nc3)c2cc1OC [Example 314, N-((5-(6,7-dimethoxyquinolin-4-yl)pyridin-2-yl)methyl)sulfamide]	> 7.00	35.7	< 6.00	–
COc1ccc2c(N3CCC4(CC3)CCN(S(N)(=O)=O)C4)ccnc2c1 [Example 363, 8-(7-methoxyquinolin-4-yl)-2,8-diazaspiro[4.5]decane-2-sulfonamide]	> 7.00	49	6.00 to 7.00	–
COc1cc2nccc(Oc3ccc(S(N)(=O)=O)cc3)c2cc1OC [Example 303, 4-((6,7-dimethoxyquinolin-4-yl)oxy)benzenesulfonamide]	> 7.00	41.6	6.00 to 7.00	–
COc1ccc2c(-c3ccc(CNS(N)(=O)=O)cc3)c(F)cnc2c1 [Example 381, N-(4-(7-methoxy-3-Fluoro-quinolin-4-yl)benzyl) Sulfamide]	> 7.00	>38	6.00 to 7.00	–
COc1cc2nccc(Oc3ccc(S(N)(=O)=O)cc3)c2cc1F [Example 74, 4-((6-fluoro-7-methoxyquinolin-4-yl)oxy)benzenesulfonamide]	> 7.00	22.5	> 7.00	–
COc1cc2nccc(-c3ccc4c(c3)CCN(S(N)(=O)=O)C4)c2cc1OC [Example 367, 6-(6,7-dimethoxyquinolin-4-yl)-3,4-dihydroisoquinoline-2(1H)-sulfonamide]	> 7.00	>35	< 6.00	–
COc1cc2ncnc(N3CCC(CCN(O)C=O)CC3)c2cc1OC [Example 219, N-(2-(1-(6,7-dimethoxyquinazolin-4-yl)piperidin-4-yl)ethyl)-N-hydroxyformamide]	> 7.00	26.4	6.00 to 7.00	–

— patent US20230183239A1, “ECTONUCLEOTIDE PYROPHOSPHATASE-PHOSPHODIESTERASE 1 (ENPP-1) INHIBITORS AND USES THEREOF” (AbbVie Inc., priority 2017, published 2023)
